Like-named read-outs stand apart in the source and are kept apart here. *1 amine or outer side, *2 acyl side, *3 side chain or, on linkers, in order; H or OH if unused. Where a SMILES comes first, the peptide text is derived from it. Side-chain parts run from the residue outwards. [ ]: non-standard residue; d: D form. The star is where a group is joined. Butanoyl(4-(4-tBuPh)) = CC(C)(C)c1ccc(CCCC(=O)*)cc1; αMePhe(2-F) = C[C@](N)(Cc1ccccc1F)C(=O)O; γGlu = O=C(O)[C@H](CCC(=O)[*:2])N[*:1]; αMeY = C[C@](N)(Cc1ccc(O)cc1)C(=O)O; 4Pal = N[C@@H](Cc1ccncc1)C(=O)O; αMeL = CC(C)C[C@](C)(N)C(=O)O; Orn = NCCC[C@H](N)C(=O)O; AEEA = NCCOCCOCC(=O)O; Aib = CC(C)(N)C(=O)O
Experiments:
Format in all cases: cell-based
hGIPR = target: T1, hGIPR (Homo sapiens, UniProt P48546); experiment: Functional cAMP formation (HTRF) in HEK-293 clonal cells expressing hGIPR, 0.1% bovine casein, without or with 1.0% human serum albumin; conditions: for Emax: read-out: hGIPR Emax, % ± SEM; for EC50: geometric mean, read-out: hGIPR EC50, nM (SEM, n)
T1 construct: expressed in transfected cells
T1 sequence (P48546 22-466): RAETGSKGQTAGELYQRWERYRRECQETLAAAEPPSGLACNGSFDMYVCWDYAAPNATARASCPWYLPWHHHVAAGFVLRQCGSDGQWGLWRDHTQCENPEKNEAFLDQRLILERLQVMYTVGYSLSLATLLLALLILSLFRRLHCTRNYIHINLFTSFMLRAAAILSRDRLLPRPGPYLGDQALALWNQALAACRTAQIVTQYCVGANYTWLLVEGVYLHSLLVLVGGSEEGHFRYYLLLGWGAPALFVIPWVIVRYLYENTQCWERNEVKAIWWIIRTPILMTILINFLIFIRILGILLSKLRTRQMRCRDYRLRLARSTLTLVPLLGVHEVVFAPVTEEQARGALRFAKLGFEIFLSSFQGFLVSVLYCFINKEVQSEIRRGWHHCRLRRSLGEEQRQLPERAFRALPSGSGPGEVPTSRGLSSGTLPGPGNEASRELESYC
How it was run: (§1)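 Cells were stimulated with peptide for 30 min at 37° C, then intracellular cAMP was measured by competitive HTRF (665/620 nm ratio) and converted to nM using a cAMP standard curve. Relative EC50 and Emax came from four-parameter logistic fits of percent maximal response against peptide concentration.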

hGLP-1R = hGLP-1R (Homo sapiens, UniProt P43220); experiment: Functional cAMP formation (HTRF) in HEK-293 clonal cells expressing hGLP-1R, 0.1% bovine casein, without or with 1.0% human serum albumin; parameters: expressed in transfected cells; conditions: for Emax: read-out: hGLP-1R Emax, % ± SEM; for EC50: geometric mean, read-out: hGLP-1R EC50, nM (SEM, n)
Sequence of hGLP-1R (P43220 24-463): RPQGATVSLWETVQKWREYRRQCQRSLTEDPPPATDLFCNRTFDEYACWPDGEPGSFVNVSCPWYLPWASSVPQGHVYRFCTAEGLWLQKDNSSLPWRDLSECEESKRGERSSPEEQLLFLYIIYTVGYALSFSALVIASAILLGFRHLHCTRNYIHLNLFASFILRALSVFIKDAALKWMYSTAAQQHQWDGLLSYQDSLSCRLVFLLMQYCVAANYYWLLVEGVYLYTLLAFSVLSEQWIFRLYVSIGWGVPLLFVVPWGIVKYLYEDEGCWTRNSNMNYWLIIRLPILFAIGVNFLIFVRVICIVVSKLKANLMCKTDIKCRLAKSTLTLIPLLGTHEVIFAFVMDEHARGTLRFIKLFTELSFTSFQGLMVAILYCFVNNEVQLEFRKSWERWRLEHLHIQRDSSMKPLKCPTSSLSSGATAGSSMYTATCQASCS
How it was run: as §1

hGCGR = target: T2, hGCGR (Homo sapiens, UniProt P47871); experiment: Functional cAMP formation (HTRF) in HEK-293 clonal cells expressing hGCGR, 0.1% bovine casein, without or with 1.0% human serum albumin; conditions: geometric mean, read-out: hGCGR EC50, nM (SEM, n)
T2 construct: expressed in transfected cells
T2 sequence (P47871 26-477): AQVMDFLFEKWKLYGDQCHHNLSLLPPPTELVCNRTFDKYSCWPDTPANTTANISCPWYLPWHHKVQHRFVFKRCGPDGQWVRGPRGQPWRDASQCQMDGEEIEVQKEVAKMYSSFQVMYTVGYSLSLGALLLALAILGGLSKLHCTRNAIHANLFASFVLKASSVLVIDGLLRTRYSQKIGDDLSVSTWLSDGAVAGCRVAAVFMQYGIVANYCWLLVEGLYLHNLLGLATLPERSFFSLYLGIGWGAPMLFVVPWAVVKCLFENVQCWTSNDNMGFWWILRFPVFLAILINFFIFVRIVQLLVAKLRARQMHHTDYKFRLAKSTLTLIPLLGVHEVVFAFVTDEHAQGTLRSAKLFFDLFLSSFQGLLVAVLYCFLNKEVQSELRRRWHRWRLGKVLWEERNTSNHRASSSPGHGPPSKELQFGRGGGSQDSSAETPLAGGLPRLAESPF
How it was run: as §1

[1] = HEK293, 0.1% bovine casein and 1.0% human serum albumin, 37° C., percent of maximal response to GIP(1-42)NH2
[2] = HEK293, percent of maximal response to GIP(1-42)NH2, 37° C., 0.1% bovine casein, arithmetic mean
[3] = HEK293, 0.1% bovine casein and 1.0% human serum albumin, 37° C., percent of maximal response to GLP-1(7-36)NH2
[4] = HEK293, percent of maximal response to GLP-1(7-36)NH2, 37° C., 0.1% bovine casein, arithmetic mean
[5] = 0.1% bovine casein and 1.0% human serum albumin, 37° C.
[6] = cAMP, incubated at 37° C., 0.1% bovine casein (no human serum albumin)

| SMILES | Emax (hGIPR; [1]) [%] | Emax (hGIPR; [2]) [%] | Emax (hGLP-1R; [3]) [%] | Emax (hGLP-1R; [4]) [%] | EC50 (hGCGR; [5]) [nM] | EC50 (hGCGR; [6]) [nM] | EC50 (hGLP-1R; [5]) [nM] | EC50 (hGLP-1R; [6]) [nM] | EC50 (hGIPR; [5]) [nM] | EC50 (hGIPR; [6]) [nM] |
| --- | --- | --- | --- | --- | --- | --- | --- | --- | --- | --- |
| CC[C@H](C)[C@H](NC(=O)[C@H](CC(C)C)NC(=O)[C@](C)(Cc1ccc(O)cc1)NC(=O)[C@@H](CCC(=O)O)NC(=O)[C@@H](NC(=O)[C@H](Cc1ccccc1)NC(=O)[C@H](CCC(=O)O)NC(=O)C(C)(C)NC(=O)[C@H](CCC(N)=O)NC(=O)[C@H](C)NC(=O)[C@H](CCCCNC(=O)COCCOCCNC(=O)COCCOCCNC(=O)CC[C@H](NC(=O)CCCCCCCCCCCCC(=O)O)C(=O)O)NC(=O)[C@H](CCCN)NC(=O)[C@H](CC(=O)O)NC(=O)[C@H](CC(C)C)NC(=O)[C@](C)(CC(C)C)NC(=O)[C@@H](NC(=O)[C@@H](NC(=O)[C@H](Cc1ccncc1)NC(=O)[C@H](CC(=O)O)NC(=O)[C@H](CO)NC(=O)[C@@H](NC(=O)[C@](C)(Cc1ccccc1F)NC(=O)[C@@H](NC(=O)CNC(=O)[C@H](CCC(=O)O)NC(=O)C(C)(C)NC(=O)[C@@H](N)Cc1ccc(O)cc1)[C@@H](C)O)[C@@H](C)O)C(C)(C)C)[C@@H](C)CC)[C@@H](C)CC)C(=O)N[C@@H](CCC(=O)O)C(=O)NCC(=O)NCC(=O)N[C@@H](CCCCNC(=O)COCCOCCNC(=O)COCCOCCNC(=O)CC[C@H](NC(=O)CCCCCCCCCCCCC(=O)O)C(=O)O)C(=O)N[C@@H](CO)C(=O)N[C@@H](CO)C(=O)NCC(=O)N[C@@H](C)C(=O)N1CCC[C@H]1C(=O)N1CCC[C@H]1C(=O)N1CCC[C@H]1C(=O)N[C@@H](CO)C(N)=O [Example 202] | 75.3 | 86 | 109 | 92.2 | > 9950 | > 9950 | – | – | – | – |
| CC[C@H](C)[C@H](NC(=O)[C@H](CCCN)NC(=O)[C@H](CC(=O)O)NC(=O)[C@H](CC(C)C)NC(=O)[C@](C)(CC(C)C)NC(=O)[C@@H](NC(=O)[C@H](CO)NC(=O)[C@H](Cc1ccncc1)NC(=O)[C@H](CC(=O)O)NC(=O)[C@H](CO)NC(=O)[C@@H](NC(=O)[C@](C)(Cc1ccccc1F)NC(=O)[C@@H](NC(=O)CNC(=O)[C@H](CCC(=O)O)NC(=O)C(C)(C)NC(=O)[C@@H](N)Cc1ccc(O)cc1)[C@@H](C)O)[C@@H](C)O)[C@@H](C)CC)C(=O)N[C@@H](C)C(=O)N[C@@H](CCC(N)=O)C(=O)NC(C)(C)C(=O)N[C@@H](CCC(=O)O)C(=O)N[C@@H](Cc1ccccc1)C(=O)N[C@H](C(=O)N[C@@H](CCCCNC(=O)COCCOCCNC(=O)COCCOCCNC(=O)CC[C@H](NC(=O)CCCc1ccc(C(C)(C)C)cc1)C(=O)O)C(=O)N[C@@](C)(Cc1ccc(O)cc1)C(=O)N[C@@H](CC(C)C)C(=O)N[C@H](C(=O)N[C@@H](CCCCNC(=O)COCCOCCNC(=O)COCCOCCNC(=O)CC[C@H](NC(=O)CCCc1ccc(C(C)(C)C)cc1)C(=O)O)C(=O)NCC(=O)NCC(=O)N1CCC[C@H]1C(=O)N[C@@H](CO)C(=O)N[C@@H](CO)C(=O)NCC(=O)N[C@@H](C)C(=O)N1CCC[C@H]1C(=O)N1CCC[C@H]1C(=O)N1CCC[C@H]1C(=O)N[C@@H](CO)C(N)=O)[C@@H](C)CC)[C@@H](C)CC [Example 203] | 87.2 | – | 105 | 119 | > 9950 | > 9950 | 3.38 | 0.535 | – | – |
| CC[C@H](C)[C@H](NC(=O)[C@H](CCCN)NC(=O)[C@H](CC(=O)O)NC(=O)[C@H](CC(C)C)NC(=O)[C@](C)(CC(C)C)NC(=O)[C@@H](NC(=O)[C@H](CO)NC(=O)[C@H](Cc1ccncc1)NC(=O)[C@H](CC(=O)O)NC(=O)[C@H](CO)NC(=O)[C@@H](NC(=O)[C@](C)(Cc1ccccc1F)NC(=O)[C@@H](NC(=O)CNC(=O)[C@H](CCC(=O)O)NC(=O)C(C)(C)NC(=O)[C@@H](N)Cc1ccc(O)cc1)[C@@H](C)O)[C@@H](C)O)[C@@H](C)CC)C(=O)N[C@@H](C)C(=O)N[C@@H](CCC(N)=O)C(=O)NC(C)(C)C(=O)N[C@@H](CCCCNC(=O)COCCOCCNC(=O)COCCOCCNC(=O)CC[C@H](NC(=O)CCCc1ccc(C(C)(C)C)cc1)C(=O)O)C(=O)N[C@@H](Cc1ccccc1)C(=O)N[C@H](C(=O)N[C@H](CCC(=O)O)C(=O)N[C@@](C)(Cc1ccc(O)cc1)C(=O)N[C@@H](CC(C)C)C(=O)N[C@H](C(=O)N[C@@H](CCCCNC(=O)COCCOCCNC(=O)COCCOCCNC(=O)CC[C@H](NC(=O)CCCc1ccc(C(C)(C)C)cc1)C(=O)O)C(=O)NCC(=O)NCC(=O)N1CCC[C@H]1C(=O)N[C@@H](CO)C(=O)N[C@@H](CO)C(=O)NCC(=O)N[C@@H](C)C(=O)N1CCC[C@H]1C(=O)N1CCC[C@H]1C(=O)N1CCC[C@H]1C(=O)N[C@@H](CO)C(N)=O)[C@@H](C)CC)[C@@H](C)CC [Example 204] | 83.3 | – | – | 126 | > 9950 | > 9950 | 2.44 | – | 0.341 | – |
| CC[C@H](C)[C@H](NC(=O)[C@H](CCCN)NC(=O)[C@H](CC(=O)O)NC(=O)[C@H](CC(C)C)NC(=O)[C@](C)(CC(C)C)NC(=O)[C@@H](NC(=O)[C@H](CO)NC(=O)[C@H](Cc1ccncc1)NC(=O)[C@H](CC(=O)O)NC(=O)[C@H](CO)NC(=O)[C@@H](NC(=O)[C@](C)(Cc1ccccc1F)NC(=O)[C@@H](NC(=O)CNC(=O)[C@H](CCC(=O)O)NC(=O)C(C)(C)NC(=O)[C@@H](N)Cc1ccc(O)cc1)[C@@H](C)O)[C@@H](C)O)[C@@H](C)CC)C(=O)N[C@@H](C)C(=O)N[C@@H](CCC(N)=O)C(=O)NC(C)(C)C(=O)N[C@@H](CCCCNC(=O)COCCOCCNC(=O)COCCOCCNC(=O)CC[C@H](NC(=O)CCCc1ccc(C(C)(C)C)cc1)C(=O)O)C(=O)N[C@@H](Cc1ccccc1)C(=O)N[C@H](C(=O)N[C@H](CCC(=O)O)C(=O)N[C@@](C)(Cc1ccc(O)cc1)C(=O)N[C@@H](CC(C)C)C(=O)N[C@H](C(=O)N[C@@H](CCC(=O)O)C(=O)NCC(=O)NCC(=O)N1CCC[C@H]1C(=O)N[C@@H](CO)C(=O)N[C@@H](CO)C(=O)NCC(=O)N[C@@H](C)C(=O)N1CCC[C@H]1C(=O)N1CCC[C@H]1C(=O)N1CCC[C@H]1C(=O)N[C@@H](CO)C(=O)N[C@@H](CCCCNC(=O)COCCOCCNC(=O)COCCOCCNC(=O)CC[C@H](NC(=O)CCCc1ccc(C(C)(C)C)cc1)C(=O)O)C(N)=O)[C@@H](C)CC)[C@@H](C)CC [Example 205] | 72.1 | – | – | – | > 9950 | > 9950 | 2.18 | – | 0.261 | 0.0264 |
| CC[C@H](C)[C@H](NC(=O)[C@H](CCCN)NC(=O)[C@H](CC(=O)O)NC(=O)[C@H](CC(C)C)NC(=O)[C@](C)(CC(C)C)NC(=O)[C@@H](NC(=O)[C@H](CO)NC(=O)[C@H](Cc1ccncc1)NC(=O)[C@H](CC(=O)O)NC(=O)[C@H](CO)NC(=O)[C@@H](NC(=O)[C@](C)(Cc1ccccc1F)NC(=O)[C@@H](NC(=O)CNC(=O)[C@H](CCC(=O)O)NC(=O)C(C)(C)NC(=O)[C@@H](N)Cc1ccc(O)cc1)[C@@H](C)O)[C@@H](C)O)[C@@H](C)CC)C(=O)N[C@@H](C)C(=O)N[C@@H](CCC(N)=O)C(=O)NC(C)(C)C(=O)N[C@@H](CCC(=O)O)C(=O)N[C@@H](Cc1ccccc1)C(=O)N[C@H](C(=O)N[C@H](CCC(=O)O)C(=O)N[C@@](C)(Cc1ccc(O)cc1)C(=O)N[C@@H](CC(C)C)C(=O)N[C@H](C(=O)N[C@@H](CCCCNC(=O)COCCOCCNC(=O)COCCOCCNC(=O)CC[C@H](NC(=O)CCCc1ccc(C(C)(C)C)cc1)C(=O)O)C(=O)NCC(=O)NCC(=O)N1CCC[C@H]1C(=O)N[C@@H](CO)C(=O)N[C@@H](CO)C(=O)NCC(=O)N[C@@H](C)C(=O)N1CCC[C@H]1C(=O)N1CCC[C@H]1C(=O)N1CCC[C@H]1C(=O)N[C@@H](CO)C(=O)N[C@@H](CCCCNC(=O)COCCOCCNC(=O)COCCOCCNC(=O)CC[C@H](NC(=O)CCCc1ccc(C(C)(C)C)cc1)C(=O)O)C(N)=O)[C@@H](C)CC)[C@@H](C)CC [Example 206] (H-Y[Aib]EGT[αMePhe(2-F)]TSD[4Pal]SI[αMeL]LD[Orn]IAQ[Aib]EFI[dE][αMeY]LIK([AEEA-AEEA-γGlu-Butanoyl(4-(4-tBuPh))])GGPSSGAPPPSK([AEEA-AEEA-γGlu-Butanoyl(4-(4-tBuPh))])-NH2) | 77.6 | 96.4 | 98.1 | 100 | > 9950 | > 9950 | 3.03 | 0.299 | 0.242 | 0.0204 |
